Results: patent publication US9902702B2, “Spirocycloheptanes as inhibitors of rock” (BRISTOL-MYERS SQUIBB COMPANY, priority 2014, dated 2018)
pIC50: −log10 of the molar value. Structures can show the parent of a compound that is named as a salt.

Target: ROCK2 (Homo sapiens, UniProt O75116)
Experiment: ROCK assay: phosphorylation of FITC peptide substrate, LABCHIP 3000 mobility shift
Format: biochemical
Settings: 5 μM ATP, 1.5 μM peptide substrate; read-out: ROCK2 Activity (ROCK IC50 range)
Procedure, shortened: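 IC50 values come from curve-fitting percent kinase inhibition across a compound dilution series. The reaction is started with Rho kinase variant in HEPES pH 7.5 buffer with MgCl2, Brij-35 and DTT, with 5 μM ATP, 1.5 μM FITC-labelled peptide and under 2% DMSO. After EDTA quench, product and substrate are separated by microfluidic mobility shift.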

Chain of ROCK2 (O75116 whole entry, species assumed): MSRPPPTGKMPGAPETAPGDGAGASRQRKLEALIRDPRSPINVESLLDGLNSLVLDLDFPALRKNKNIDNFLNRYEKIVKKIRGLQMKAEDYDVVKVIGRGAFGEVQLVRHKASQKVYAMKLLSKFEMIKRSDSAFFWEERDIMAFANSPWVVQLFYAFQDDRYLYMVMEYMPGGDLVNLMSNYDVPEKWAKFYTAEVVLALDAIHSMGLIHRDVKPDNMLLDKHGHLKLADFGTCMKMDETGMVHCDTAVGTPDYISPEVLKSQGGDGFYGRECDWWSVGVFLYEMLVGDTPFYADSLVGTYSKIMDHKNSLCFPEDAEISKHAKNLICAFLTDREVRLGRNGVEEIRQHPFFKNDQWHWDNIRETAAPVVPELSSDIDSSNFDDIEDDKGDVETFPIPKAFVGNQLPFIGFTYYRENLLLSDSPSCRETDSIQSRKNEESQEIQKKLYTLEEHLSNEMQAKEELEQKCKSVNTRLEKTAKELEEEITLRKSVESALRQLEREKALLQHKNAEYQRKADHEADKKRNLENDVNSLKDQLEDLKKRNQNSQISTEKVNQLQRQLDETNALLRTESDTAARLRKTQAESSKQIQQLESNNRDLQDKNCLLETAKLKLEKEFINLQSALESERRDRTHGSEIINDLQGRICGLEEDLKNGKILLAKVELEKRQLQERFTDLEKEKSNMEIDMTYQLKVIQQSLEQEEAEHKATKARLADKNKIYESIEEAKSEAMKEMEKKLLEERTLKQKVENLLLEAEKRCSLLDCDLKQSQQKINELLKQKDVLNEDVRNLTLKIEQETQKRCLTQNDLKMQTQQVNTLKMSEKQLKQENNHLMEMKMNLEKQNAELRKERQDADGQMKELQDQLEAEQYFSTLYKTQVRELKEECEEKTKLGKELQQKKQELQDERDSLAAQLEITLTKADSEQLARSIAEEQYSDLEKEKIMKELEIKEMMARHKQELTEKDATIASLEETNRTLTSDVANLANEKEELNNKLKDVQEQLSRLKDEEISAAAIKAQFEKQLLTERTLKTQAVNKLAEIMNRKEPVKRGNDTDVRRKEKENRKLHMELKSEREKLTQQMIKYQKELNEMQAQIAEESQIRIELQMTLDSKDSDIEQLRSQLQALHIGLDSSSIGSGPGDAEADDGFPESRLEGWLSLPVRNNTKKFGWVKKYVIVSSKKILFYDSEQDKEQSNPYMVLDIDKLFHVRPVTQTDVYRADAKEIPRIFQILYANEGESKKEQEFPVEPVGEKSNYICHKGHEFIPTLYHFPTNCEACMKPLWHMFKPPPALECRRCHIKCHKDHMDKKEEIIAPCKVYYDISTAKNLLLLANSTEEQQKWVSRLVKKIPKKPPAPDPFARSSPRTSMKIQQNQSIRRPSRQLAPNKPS

| SMILES | pIC50 |
| --- | --- |
| CC(C)(O)Cn1nc(C(=O)NC2CC3(C2)CC(c2n[nH]c(=O)n4cccc24)C3)c2ccccc21 (stereo not drawn) [Example 278, 1-(2-hydroxy-2-methylpropyl)-N-(6-(4-oxo-3,4-dihydropyrrolo[1,2-d][1,2,4]triazin-1-yl)spiro[3.3]heptan-2-yl)-1H-indazole-3-carboxamide, TFA] | 7.82 to 8.29 |
| CC(C)(O)COc1ccc2c(C(=O)NC3CC4(C3)CC(c3n[nH]c(=O)n5cccc35)C4)cnn2c1 (stereo not drawn) [Example 279, 6-(2-hydroxy-2-methylpropoxy)-N-(6-(4-oxo-3,4-dihydropyrrolo[1,2-d][1,2,4]triazin-1-yl)spiro[3.3]heptan-2-yl)pyrazolo[1,5-a]pyridine-3-carboxamide, TFA] | 8.30 to 8.70 |
| Cn1nc(C(=O)NC2CC3(C2)CC(c2n[nH]c(=O)n4cccc24)C3)c2ccccc21 (stereo not drawn) [Example 280, 1-methyl-N-(6-(4-oxo-3,4-dihydropyrrolo[1,2-d][1,2,4]triazin-1-yl)spiro[3.3]heptan-2-yl)-1H-indazole-3-carboxamide, TFA] | 7.82 to 8.29 |
| Cc1ccn2c(=O)[nH]nc(C3CC4(CC(NC(=O)c5cnn6cc(OCC(C)(C)O)ccc56)C4)C3)c12 (stereo not drawn) [Example 281, 6-(2-hydroxy-2-methylpropoxy)-N-(6-(8-methyl-4-oxo-3,4-dihydropyrrolo[1,2-d][1,2,4]triazin-1-yl)spiro[3.3]heptan-2-yl)pyrazolo[1,5-a]pyridine-3-carboxamide, TFA] | 7.82 to 8.29 |
| O=C(NC1CC2(C1)CC(c1n[nH]c(=O)c3ccccc13)C2)c1cnn2cccnc12 [Example 282, N-((aR)-6-(4-oxo-3,4-dihydrophthalazin-1-yl)spiro[3.3]heptan-2-yl)pyrazolo[1,5-a]pyrimidine-3-carboxamide] | 5.68 to 7.00 |
| Cc1cc(C)cc(Nc2ccc3ncc(C(=O)NC4CC5(C4)CC(c4n[nH]c(=O)c6ccccc46)C5)n3n2)c1 [Example 283, 6-((3,5-dimethylphenyl)amino)-N-((aR)-6-(4-oxo-3,4-dihydrophthalazin-1-yl)spiro[3.3]heptan-2-yl)imidazo[1,2-b]pyridazine-3-carboxamide] | 5.68 to 7.00 |
| O=C(N[C@H]1CC2(C1)C[C@H](c1n[nH]c(=O)c3ccccc31)C2)c1onc2cc(Br)ccc12 (stereo partly drawn) [Example 284, 6-bromo-N-((aR)-6-(4-oxo-3,4-dihydrophthalazin-1-yl)spiro[3.3]heptan-2-yl)benzo[c]isoxazole-3-carboxamide] | 8.30 to 8.70 |
| CCn1nccc1C(=O)NC1CC2(C1)CC(c1n[nH]c(=O)c3ccccc13)C2 [Example 285, 1-ethyl-N-((aR)-6-(4-oxo-3,4-dihydrophthalazin-1-yl)spiro[3.3]heptan-2-yl)-1H-pyrazole-5-carboxamide] | 7.00 to 7.82 |
| O=C(NC1CC2(C1)CC(c1n[nH]c(=O)c3ccccc13)C2)c1ccnn1C(F)F [Example 286, 1-(difluoromethyl)-N-((aR)-6-(4-oxo-3,4-dihydrophthalazin-1-yl)spiro[3.3]heptan-2-yl)-1H-pyrazole-5-carboxamide] | 7.00 to 7.82 |
| CC(C)(O)COc1ccc2c(C(=O)NC3CC4(C3)CC(c3n[nH]c(=O)c5ccccc35)C4)onc2c1 [Example 287, 6-(2-hydroxy-2-methylpropoxy)-N-((aR)-6-(4-oxo-3,4-dihydrophthalazin-1-yl)spiro[3.3]heptan-2-yl)benzo[c]isoxazole-3-carboxamide, TFA] | 8.70 to 9.70 |
| O=C(NC1CC2(C1)CC(c1n[nH]c(=O)c3ccccc13)C2)c1nn(-c2cccc(Cl)c2)c2c1CCNC2=O [Example 288, 1-(3-chlorophenyl)-7-oxo-N-((aR)-6-(4-oxo-3,4-dihydrophthalazin-1-yl)spiro[3.3]heptan-2-yl)-4,5,6,7-tetrahydro-1H-pyrazolo[3,4-c] pyridine-3-carboxamide] | 7.00 to 7.82 |
| COc1ccc(-n2nc(C(=O)NC3CC4(C3)CC(c3n[nH]c(=O)c5ccccc35)C4)c3c2C(=O)NCC3)cc1 [Example 289, 1-(4-methoxyphenyl)-7-oxo-N-((aR)-6-(4-oxo-3,4-dihydrophthalazin-1-yl)spiro[3.3]heptan-2-yl)-4,5,6,7-tetrahydro-1H-pyrazolo[3,4-c]pyridine-3-carboxamide] | 7.00 to 7.82 |
| O=C(NC1CC2(C1)CC(c1n[nH]c(=O)c3ccccc13)C2)c1noc2ccc(Cl)cc12 [Example 290, 5-chloro-N-((aR)-6-(4-oxo-3,4-dihydrophthalazin-1-yl)spiro[3.3]heptan-2-yl)benzo[d]isoxazole-3-carboxamide] | 8.30 to 8.70 |
| CC(=O)Nc1ccc2c(C(=O)NC3CC4(C3)CC(c3n[nH]c(=O)c5ccccc35)C4)noc2c1 [Example 291, 6-acetamido-N-((aR)-6-(4-oxo-3,4-dihydrophthalazin-1-yl)spiro[3.3]heptan-2-yl)benzo[d]isoxazole-3-carboxamide] | 7.82 to 8.29 |
| [H][C@]1(c2n[nH]c(=O)c3ccccc32)C[C@@]2(C[C@H](NC(=O)c3ncn4ccccc34)C2)C1 (stereo partly drawn) [Example 292, N-((aR)-6-(4-oxo-3,4-dihydrophthalazin-1-yl)spiro[3.3]heptan-2-yl)imidazo[1,5-a]pyridine-1-carboxamide] | 7.00 to 7.82 |
| [H][C@]1(c2n[nH]c(=O)c3ccccc32)C[C@@]2(C[C@H](NC(=O)c3cc4cc(OC)ccc4n3C)C2)C1 (stereo partly drawn) [Example 293, 5-methoxy-1-methyl-N-((aR)-6-(4-oxo-3,4-dihydrophthalazin-1-yl)spiro[3.3]heptan-2-yl)-1H-indole-2-carboxamide] | 7.00 to 7.82 |
| [H][C@]1(c2n[nH]c(=O)c3ccccc32)C[C@@]2(C[C@H](NC(=O)c3cc4ccccc4n3C)C2)C1 (stereo partly drawn) [Example 294, 1-methyl-N-((aR)-6-(4-oxo-3,4-dihydrophthalazin-1-yl)spiro[3.3]heptan-2-yl)-1H-indole-2-carboxamide] | 7.82 to 8.29 |
| [H][C@]1(c2n[nH]c(=O)c3ccccc32)C[C@@]2(C[C@H](NC(=O)c3cc4cccc(OC)c4[nH]3)C2)C1 (stereo partly drawn) [Example 295, 7-methoxy-N-((aR)-6-(4-oxo-3,4-dihydrophthalazin-1-yl)spiro[3.3]heptan-2-yl)-1H-indole-2-carboxamide] | 7.82 to 8.29 |
| [H][C@]1(c2n[nH]c(=O)c3ccccc32)C[C@@]2(C[C@H](NC(=O)c3nc4c(s3)CN(C)CC4)C2)C1 (stereo partly drawn) [Example 296, 5-methyl-N-((aR)-6-(4-oxo-3,4-dihydrophthalazin-1-yl)spiro[3.3]heptan-2-yl)-4,5,6,7-tetrahydrothiazolo [5,4-c]pyridine-2-carboxamide] | 5.68 to 7.00 |
| [H][C@]1(c2n[nH]c(=O)c3ccccc32)C[C@@]2(C[C@H](NC(=O)c3cc4c(Cl)cccc4n3C)C2)C1 (stereo partly drawn) [Example 297, 4-chloro-1-methyl-N-((aR)-6-(4-oxo-3,4-dihydrophthalazin-1-yl)spiro[3.3]heptan-2-yl)-1H-indole-2-carboxamide] | 8.30 to 8.70 |
| [H][C@]1(c2n[nH]c(=O)c3ccccc32)C[C@@]2(C[C@H](NC(=O)c3cc4ccccc4[nH]3)C2)C1 (stereo partly drawn) [Example 298, N-((aR)-6-(4-oxo-3,4-dihydrophthalazin-1-yl)spiro[3.3]heptan-2-yl)-1H-indole-2-carboxamide] | 7.82 to 8.29 |
| [H][C@]1(c2n[nH]c(=O)c3ccccc32)C[C@]2(C[C@@H](NC(=O)c3c(C)nc4ccccn34)C2)C1 (stereo partly drawn) [Example 299, 2-methyl-N-((aR)-6-(4-oxo-3,4-dihydrophthalazin-1-yl)spiro[3.3]heptan-2-yl)imidazo[1,2-a]pyridine-3-carboxamide] | 7.00 to 7.82 |
| [H][C@]1(c2n[nH]c(=O)c3ccccc32)C[C@]2(C[C@@H](NC(=O)c3c[nH]c4ccccc34)C2)C1 (stereo partly drawn) [Example 300, N-((aR)-6-(4-oxo-3,4-dihydrophthalazin-1-yl)spiro[3.3]heptan-2-yl)-1H-indole-3-carboxamide] | 7.82 to 8.29 |
| [H][C@]1(c2n[nH]c(=O)c3ccccc32)C[C@]2(C[C@@H](NC(=O)c3cc4cccc(Cl)c4n3C)C2)C1 (stereo partly drawn) [Example 301, 7-chloro-1-methyl-N-((aR)-6-(4-oxo-3,4-dihydrophthalazin-1-yl)spiro[3.3]heptan-2-yl)-1H-indole-2-carboxamide] | 8.30 to 8.70 |
| [H][C@]1(c2n[nH]c(=O)c3ccccc32)C[C@]2(C[C@@H](NC(=O)c3cc4c(Cl)ccc(C)c4[nH]3)C2)C1 (stereo partly drawn) [Example 302, 4-chloro-7-methyl-N-((aR)-6-(4-oxo-3,4-dihydrophthalazin-1-yl)spiro[3.3]heptan-2-yl)-1H-indole-2-carboxamide] | 8.70 to 9.70 |
| [H][C@]1(c2n[nH]c(=O)c3ccccc32)C[C@]2(C[C@@H](NC(=O)c3cc4nccnc4s3)C2)C1 (stereo partly drawn) [Example 303, N-((aR)-6-(4-oxo-3,4-dihydrophthalazin-1-yl)spiro[3.3]heptan-2-yl)thieno[2,3-b]pyrazine-6-carboxamide] | 7.82 to 8.29 |
| [H][C@]1(c2n[nH]c(=O)c3ccccc32)C[C@]2(C[C@@H](NC(=O)c3cnn4cccc(Br)c34)C2)C1 (stereo partly drawn) [Example 304, 4-bromo-N-((aR)-6-(4-oxo-3,4-dihydrophthalazin-1-yl)spiro[3.3]heptan-2-yl)pyrazolo[1,5-a]pyridine-3-carboxamide] | 7.00 to 7.82 |
| [H][C@]1(c2n[nH]c(=O)c3ccccc32)C[C@]2(C[C@@H](NC(=O)c3nc4ccc(Cl)cc4[nH]3)C2)C1 (stereo partly drawn) [Example 305, 6-chloro-N-((aR)-6-(4-oxo-3,4-dihydrophthalazin-1-yl)spiro[3.3]heptan-2-yl)-1H-benzo[d] imidazole-2-carboxamide] | 7.00 to 7.82 |
| [H][C@]1(c2n[nH]c(=O)c3ccccc32)C[C@]2(C[C@@H](NC(=O)c3cc4cc(Cl)ccc4n3C)C2)C1 (stereo partly drawn) [Example 306, 5-chloro-1-methyl-N-((aR)-6-(4-oxo-3,4-dihydrophthalazin-1-yl)spiro[3.3]heptan-2-yl)-1H-indole-2-carboxamide] | 7.82 to 8.29 |
| [H][C@]1(c2n[nH]c(=O)c3ccccc32)C[C@]2(C[C@@H](NC(=O)c3ccc4c(c3)ncn4C(C)C)C2)C1 (stereo partly drawn) [Example 307, 1-isopropyl-N-((aR)-6-(4-oxo-3,4-dihydrophthalazin-1-yl)spiro[3.3]heptan-2-yl)-1H-benzo[d] imidazole-5-carboxamide] | 7.82 to 8.29 |
